From patent publication US20220323441A1, “THERAPEUTIC FOR GOUT OR HYPERURICEMIA” (Nippon Chemiphar Co., Ltd., priority 2019, published 2022)
Read-outs that look alike come from different tables or passages of the source.

Columns and labels:
serum uric acid level [1] = test: Example 1, action of lowering serum uric acid level in healthy adult males; assay type: in vivo
Source text: The effect of gradually lowering the blood uric acid level which is achieved by administering the pharmaceutical composition provided by the present invention may be confirmed, for example, when a maximum rate of decrease in a blood uric acid level on the first day of the administration ([(pre-administration uric acid level−minimum post-administration uric acid level on first day of administration)/pre-administration uric acid level]×100) is about 35% or less (for example, 1 to 35% decrease, 10 to 30% decrease, 10 to 25% decrease, 10 to 20% decrease, or 15 to 25% decrease); and/or the maximum rate of decrease in a blood uric acid level on the seventh day of the administration ([(pre-administration uric acid level−minimum post-administration uric acid level on the seventh day of administration)/pre-administration uric acid level]×100) is about 55% or less (for example, 1 to 55% decrease, 10 to 50% decrease, 15 to 45% decrease, 20 to 45% decrease, 20 to 40% decrease, or 20 to 35% decrease), the maximum rates of decrease being determined by continuously administering the pharmaceutical composition provided by the present invention to a healthy adult (for example, a male) for 7 days and measuring the blood uric acid levels before and after the administration.
The blood uric acid level (blood uric acid concentration) may be measured by a known uricase-peroxidase method.
80 mg of Compound 14 was repeatedly administered to 6 healthy adult males once daily for 7 days using solid dispersion capsules of Formulation Example 1, and the action of lowering a serum uric acid level was examined. For comparative reference, the results are shown in FIG. 9 together with the result of a case described in Non Patent Literature 3 in which febuxostat (40 mg) was used.

[2] = Particle size distribution of amorphous Compound 14 (laser diffraction); assay type: physicochemical; settings: amorphous Compound 14, spray dried; dispersed in 0.2% Aerosol OT aqueous solution
Method: A volume average particle size (D50) of the obtained amorphous Compound 14 was measured with a Shimadzu laser diffraction type particle size distribution measuring device SALD-2200 using a dispersion obtained by adding about 2 mg of a sample to a 0.2% Aerosol OT aqueous solution and irradiating the solution with ultrasonic waves for 30 seconds for dispersion. Shimadzu WingSALD-2200 version 1.02 software was used for data collection and analysis. […] The volume average particle size (D50) of amorphous Compound 14 obtained from the particle size distribution was 2.949 μm.

serum uric acid level [3] = settings: febuxostat 40 mg; about 15 hours after the administration; cited from earlier work

| volume average particle size (D50) [2] [μm] | SMILES | course of serum uric acid level throughout the administration period (serum uric acid level [1]; 20 mg once daily for 7 days, solid dispersion capsules of Formulation Example 1) | course of serum uric acid level throughout the administration period (serum uric acid level [1]; 40 mg once daily for 7 days, capsules containing micronized Compound 14) | course of serum uric acid level throughout the administration period (serum uric acid level [1]; 80 mg once daily for 7 days, solid dispersion capsules of Formulation Example 1) | maximum rate of decrease in a blood uric acid level on the seventh day (serum uric acid level [1]; 80 mg once daily for 7 days, solid dispersion capsules of Formulation Example 1, about 8 hours after the administration) | maximum rate of decrease in a blood uric acid level on the first day of the administration (serum uric acid level [1]; 80 mg once daily, solid dispersion capsules of Formulation Example 1, 6 healthy adult males, at 12 hours after the administration) | maximum rate of decrease in a blood uric acid level on the first day of the administration (serum uric acid level [3]) |
| --- | --- | --- | --- | --- | --- | --- | --- |
| 2.949 | N#Cc1cc(-c2nc3c(O)ncnc3s2)ccc1Oc1ccccc1 [Compound 14, 2-(3-Cyano-4-phenoxyphenyl)-7-hydroxythiazolo[5,4-d]pyrimidine] | gradually decreased over time | gradually decreased over time | gradually decreased over time | about 30% | about 17% | – |
| – | Cc1nc(-c2ccc(OCC(C)C)c(C#N)c2)sc1C(=O)O [febuxostat] | – | – | – | – | – | about 35% |
